Data on 23 molecules can be found in patent US10722501B2 (BAYER AKTIENGESELLSCHAFT, priority 2016, dated 2020).

One may read the IC50 as the concentration that gives 50% inhibition.

The assay addresses T1, recombinant full-length human prolyl endopeptidase (PREP) (Homo sapiens, UniProt P48147).
T1 construct: To recombinant full-length human prolyl endopeptidase (PREP, R&D-Systems, 4308-SE); purchased R&D-Systems 4308-SE
T1 sequence (P48147 1-710): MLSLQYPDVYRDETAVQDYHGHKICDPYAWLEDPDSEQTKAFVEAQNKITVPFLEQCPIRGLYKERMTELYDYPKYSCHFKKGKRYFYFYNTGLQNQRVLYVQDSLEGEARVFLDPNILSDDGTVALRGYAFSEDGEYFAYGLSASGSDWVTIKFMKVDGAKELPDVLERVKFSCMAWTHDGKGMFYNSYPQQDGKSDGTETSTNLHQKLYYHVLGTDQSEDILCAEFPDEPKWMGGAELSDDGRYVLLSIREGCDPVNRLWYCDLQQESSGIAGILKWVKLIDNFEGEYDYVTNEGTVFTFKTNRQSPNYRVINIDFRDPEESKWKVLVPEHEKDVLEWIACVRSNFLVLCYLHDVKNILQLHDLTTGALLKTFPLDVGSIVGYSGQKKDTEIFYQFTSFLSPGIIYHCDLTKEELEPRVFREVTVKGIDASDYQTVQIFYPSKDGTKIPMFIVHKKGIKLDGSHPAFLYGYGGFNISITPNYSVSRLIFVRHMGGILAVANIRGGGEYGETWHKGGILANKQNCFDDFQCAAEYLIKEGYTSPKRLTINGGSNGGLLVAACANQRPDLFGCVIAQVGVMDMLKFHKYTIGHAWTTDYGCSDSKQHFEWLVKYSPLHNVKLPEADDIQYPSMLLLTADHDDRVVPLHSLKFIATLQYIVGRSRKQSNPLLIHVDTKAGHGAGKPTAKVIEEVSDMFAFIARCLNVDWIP
As to the kind of experiment: Biochemical human prolyl endopeptidase (PREP) assay with fluorescently labelled substrate. Conditions: substrate Z-Gly-Pro-AMC 50 μM, 32° C., 60 min; some as mean values from multiple independent determinations. The method in brief: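 0.4 nM (final, example) recombinant PREP in pH 7.5 Tris buffer with EDTA, GSH, BSA and Brij-35; compounds at 1 nM to 30 μM. Reaction started with 50 μM Z-Gly-Pro-AMC and followed by fluorescence (ex 360/em 465 nm) at 32° C for 60 min. IC50 interpolated from percent activity based on initial slopes.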
Consider `Cc1ccc(Cn2nc3n(c2=O)C(C(=O)N2CCC(C)CC2)CCC3)cc1` (racemic) [Example 160, (5RS)-2-(4-Methylbenzyl)-5-[(4-methylpiperidin-1-yl)carbonyl]-5,6,7,8-tetrahydro[1,2,4]triazolo[4,3-a]pyridin-3(2H)-one], for which the IC50 was 32 nM.

With `Cc1ccc(Cn2nc3n(c2=O)C(C(=O)N2CCCCC2)CCC3)cc1` (racemic) [Example 161, (5RS)-2-(4-Methylbenzyl)-5-(piperidin-1-ylcarbonyl)-5,6,7,8-tetrahydro[1,2,4]triazolo[4,3-a]pyridin-3(2H)-one], the IC50 turned out to be 37 nM. As for `Cc1ccc(Cn2nc3n(c2=O)C(C(=O)N2CCCC2C)CCC3)cc1` (racemic) [Example 162, (5RS)-2-(4-Methylbenzyl)-5-[2(RS)-(2-methylpyrrolidin-1-yl)carbonyl]-5,6,7,8-tetrahydro[1,2,4]triazolo[4,3-a]pyridin-3(2H)-one], the figure is 130 nM; as for `O=C(C1CCc2nn(Cc3ccc(Cl)nc3)c(=O)n21)N1CCC(F)(F)C1` (racemic) [Example 166, (5RS)-2-[(6-Chloropyridin-3-yl)methyl]-5-[(3,3-difluoropyrrolidin-1-yl)carbonyl]-2,5,6,7-tetrahydro-3H-pyrrolo[2,1-c][1,2,4]triazol-3-one], 22 nM; as for `O=C(C1CCc2nn(Cc3ccc(C(F)(F)F)nc3)c(=O)n21)N1CCC(F)(F)C1` (racemic) [Example 167, (5RS)-5-[(3,3-Difluoropyrrolidin-1-yl)carbonyl]-2-{[6-(trifluoromethyl)pyridin-3-yl]methyl}-2,5,6,7-tetrahydro-3H-pyrrolo[2,1-c][1,2,4]triazol-3-one], 56.5 nM. As for `O=C(C1CCc2nn(Cc3ccc(F)c(Cl)c3)c(=O)n21)N1CCC(F)(F)C1` (racemic) [Example 168, (5RS)-2-(3-Chloro-4-fluorobenzyl)-5-[(3,3-difluoropyrrolidin-1-yl)carbonyl]-2,5,6,7-tetrahydro-3H-pyrrolo[2,1-c][1,2,4]triazol-3-one], the figure is 4.1 nM; as for `O=C(C1CCc2nn(Cc3ccc(Cl)nc3)c(=O)n21)N1CC(F)C1` (racemic) [Example 169, (5RS)-2-[(6-Chloropyridin-3-yl)methyl]-5-[(3-fluoroazetidin-1-yl)carbonyl]-2,5,6,7-tetrahydro-3H-pyrrolo[2,1-c][1,2,4]triazol-3-one], 31.5 nM; as for `O=C(C1CCc2nn(Cc3ccc(C(F)(F)F)nc3)c(=O)n21)N1CC(F)C1` (racemic) [Example 170, (5RS)-5-[(3-Fluoroazetidin-1-yl)carbonyl]-2-{[6-(trifluoromethyl)pyridin-3-yl]methyl}-2,5,6,7-tetrahydro-3H-pyrrolo[2,1-c][1,2,4]triazol-3-one], 90 nM. To `O=C(C1CCc2nn(Cc3ccc(F)c(Cl)c3)c(=O)n21)N1CC(F)C1` (racemic) [Example 171, (5RS)-2-(3-Chloro-4-fluorobenzyl)-5-[(3-fluoroazetidin-1-yl)carbonyl]-2,5,6,7-tetrahydro-3H-pyrrolo[2,1-c][1,2,4]triazol-3-one] belongs 6.3 nM.

On to `O=C(C1CCc2nn(Cc3ccc(Cl)nc3)c(=O)n21)N1C[C@@H](F)[C@@H](F)C1` (mixture of isomers) [Example 172, (5RS)-2-[(6-Chloropyridin-3-yl)methyl]-5-{[(3R,4S)-3,4-difluoropyrrolidin-1-yl]carbonyl}-2,5,6,7-tetrahydro-3H-pyrrolo[2,1-c][1,2,4]triazol-3-one], for which the 50% inhibitory concentration (IC50) was 6.3 nM. `O=C(C1CCc2nn(Cc3ccc(C(F)(F)F)nc3)c(=O)n21)N1C[C@@H](F)[C@@H](F)C1` (mixture of isomers) [Example 173, (5RS)-5-{[(3R,4S)-3,4-Difluoropyrrolidin-1-yl]carbonyl}-2-{[6-(trifluoromethyl)pyridin-3-yl]methyl}-2,5,6,7-tetrahydro-3H-pyrrolo[2,1-c][1,2,4]triazol-3-one]: the IC50 amounted to 5.85 nM. To `O=C(C1CCc2nn(Cc3ccc(F)c(Cl)c3)c(=O)n21)N1C[C@@H](F)[C@@H](F)C1` (mixture of isomers) [Example 174, (5RS)-2-(3-Chloro-4-fluorobenzyl)-5-{[(3R,4S)-3,4-difluoropyrrolidin-1-yl)carbonyl]-2,5,6,7-tetrahydro-3H-pyrrolo[2,1-c][1,2,4]triazol-3-one] belongs 1.15 nM; to `O=C(C1CCc2nn(Cc3ccnc(C(F)(F)F)c3F)c(=O)n21)N1C[C@@H](F)[C@@H](F)C1` (mixture of isomers) [Example 175, (5RS)-5-{[(3R,4S)-3,4-Difluoropyrrolidin-1-yl]carbonyl}-2-{[3-fluoro-2-(trifluoromethyl)pyridin-4-yl]methyl}-2,5,6,7-tetrahydro-3H-pyrrolo[2,1-c][1,2,4]triazol-3-one], 7 nM. To `O=C(C1CCc2nn(Cc3ccnc(C(F)(F)F)c3F)c(=O)n21)N1CCC(F)(F)C1` (racemic) [Example 181, (5RS)-5-[(3,3-Difluoropyrrolidin-1-yl)carbonyl]-2-{[3-fluoro-2-(trifluoromethyl)pyridin-4-yl]methyl}-2,5,6,7-tetrahydro-3H-pyrrolo[2,1-c][1,2,4]triazol-3-one] belongs 24.8 nM; to `O=C(C1CCc2nn(Cc3ccnc(C(F)(F)F)c3F)c(=O)n21)N1CC(F)C1` (racemic) [Example 182, (5RS)-5-[(3-Fluoroazetidin-1-yl)carbonyl]-2-{[3-fluoro-2-(trifluoromethyl)pyridin-4-yl]methyl}-2,5,6,7-tetrahydro-3H-pyrrolo[2,1-c][1,2,4]triazol-3-one], 37.5 nM; to `O=C([C@@H]1CCCc2nn(Cc3ccnc(C(F)(F)F)c3F)c(=O)n21)N1CCC2CC21` (mixture of isomers) [Example 205, (5S)-5-[(1 RS,5SR)-2-Azabicyclo[3.1.0]hex-2-ylcarbonyl]-2-{[3-fluoro-2-(trifluoromethyl)pyridin-4-yl]methyl}-5,6,7,8-tetrahydro[1,2,4]triazolo[4,3-a]pyridin-3(2H)-one], 10 nM. As for `CC1CCC(C(=O)N2CC[C@H](F)C2)n2c1nn(Cc1ccc(C(F)(F)F)nc1)c2=O` (mixture of isomers) [Example 220, (5RS,8RS)-5-{[(3S)-3-Fluoropyrrolidin-1-yl]carbonyl}-8-methyl-2-{[6-(trifluoromethyl)pyridin-3-yl]methyl}-5,6,7,8-tetrahydro[1,2,4]triazolo[4,3-a]pyridin-3(2H)-one], the figure is 1.5 nM; as for `Cc1ccc(Cn2nc3n(c2=O)C(C(=O)N2CCCC2)CCC3C)cc1` (racemic) [Example 223, (5RS,8RS)-8-Methyl-2-(4-methylbenzyl)-5-(pyrrolidin-1-ylcarbonyl)-5,6,7,8-tetrahydro[1,2,4]triazolo[4,3-a]pyridin-3(2H)-one], 0.415 nM. Regarding `Cc1ccc(Cn2nc3n(c2=O)C(C(=O)N2CCCC2)CC(C)C3)cc1` (racemic) [Example 224, (5RS,7RS)-7-Methyl-2-(4-methylbenzyl)-5-(pyrrolidin-1-ylcarbonyl)-5,6,7,8-tetrahydro[1,2,4]triazolo[4,3-a]pyridin-3(2H)-one], the 50% inhibitory concentration (IC50) came to 0.56 nM.

In the case of `O=C(C1CC(C(F)(F)F)Cc2nn(Cc3ccc(Cl)nc3)c(=O)n21)N1CCC(F)(F)C1` (racemic) [Example 230, (5RS,7RS)-2-[(6-Chloropyridin-3-yl)methyl]-5-[(3,3-difluoropyrrolidin-1-yl)carbonyl]-7-(trifluoromethyl)-5,6,7,8-tetrahydro[1,2,4]triazolo[4,3-a]pyridin-3(2H)-one], the half-inhibitory concentration (IC50) came to 2.3 nM.

With `O=C(C1CC(C(F)(F)F)Cc2nn(Cc3ccc(C(F)(F)F)nc3)c(=O)n21)N1CC(O)C1` (racemic) [Example 233, (5RS,7RS)-5-[(3-Hydroxyazetidin-1-yl)carbonyl]-7-(trifluoromethyl)-2-{[6-(trifluoromethyl)pyridin-3-yl]methyl}-5,6,7,8-tetrahydro[1,2,4]triazolo[4,3-a]pyridin-3(2H)-one], the IC50 stood at 203 nM. To `O=C(C1CC(C(F)(F)F)Cc2nn(Cc3ccc(C(F)(F)F)nc3)c(=O)n21)N1CC[C@H](F)C1` (mixture of isomers) [Example 235, (5RS,7RS)-5-{[(3S)-3-Fluoropyrrolidin-1-yl]carbonyl}-7-(trifluoromethyl)-2-{[6-(trifluoromethyl)pyridin-3-yl]methyl}-5,6,7,8-tetrahydro[1,2,4]triazolo[4,3-a]pyridin-3(2H)-one] belongs 6.8 nM; to `O=C(C1CC(C(F)(F)F)Cc2nn(Cc3ccc(C(F)(F)F)nc3)c(=O)n21)N1CC[C@H](F)C1` (mixture of isomers) [Example 236, (5RS,7RS)-5-{[(3S)-3-Fluoropyrrolidin-1-yl]carbonyl}-7-(trifluoromethyl)-2-{[6-(trifluoromethyl)pyridin-3-yl]methyl}-5,6,7,8-tetrahydro[1,2,4]triazolo[4,3-a]pyridin-3(2H)-one], 1.4 nM.
